Measured values taken from patent publication US9643964B2, “3-(2-aminopyrimidin-4-yl)-5-(3-hydroxypropynyl)-1H-pyrrolo[2,3-C]pyridine derivatives as NIK inhibitors for the treatment of cancer” (Janssen Pharmaceutica NV, priority 2013, dated 2017).

Columns and labels:
[1] = tested on: JJN-3 cells; experiment: Biological Assay C: antiproliferative activity on JJN-3 cells (CellTiter-Glo); assay type: cell-based, human; conditions: Homo sapiens, JJN-3, 72 h, 72 hr treatment; averaged values
Procedure, shortened: (§1)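 CellTiter-Glo luminescence after 72 h exposure, blank (cells read at compound addition) subtracted, growth expressed as % of untreated control; duplicate wells. Suspension cells in RPMI/10% FCS, 2,000–6,000 cells/well, 0.3% DMSO.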

[2] = target: T1, Recombinant Human NF-kappaB-Inducing Kinase (NIK/MAP3K14) (Homo sapiens, UniProt Q99558); experiment: Biological Assay A2: inhibition of auto-phosphorylation of recombinant human NIK/MAP3K14 (AlphaScreen); assay type: biochemical; conditions: auto-phosphorylation; averaged over all measurements on all batches; read-out: αscreen IC50
T1 sequence (Q99558 whole entry): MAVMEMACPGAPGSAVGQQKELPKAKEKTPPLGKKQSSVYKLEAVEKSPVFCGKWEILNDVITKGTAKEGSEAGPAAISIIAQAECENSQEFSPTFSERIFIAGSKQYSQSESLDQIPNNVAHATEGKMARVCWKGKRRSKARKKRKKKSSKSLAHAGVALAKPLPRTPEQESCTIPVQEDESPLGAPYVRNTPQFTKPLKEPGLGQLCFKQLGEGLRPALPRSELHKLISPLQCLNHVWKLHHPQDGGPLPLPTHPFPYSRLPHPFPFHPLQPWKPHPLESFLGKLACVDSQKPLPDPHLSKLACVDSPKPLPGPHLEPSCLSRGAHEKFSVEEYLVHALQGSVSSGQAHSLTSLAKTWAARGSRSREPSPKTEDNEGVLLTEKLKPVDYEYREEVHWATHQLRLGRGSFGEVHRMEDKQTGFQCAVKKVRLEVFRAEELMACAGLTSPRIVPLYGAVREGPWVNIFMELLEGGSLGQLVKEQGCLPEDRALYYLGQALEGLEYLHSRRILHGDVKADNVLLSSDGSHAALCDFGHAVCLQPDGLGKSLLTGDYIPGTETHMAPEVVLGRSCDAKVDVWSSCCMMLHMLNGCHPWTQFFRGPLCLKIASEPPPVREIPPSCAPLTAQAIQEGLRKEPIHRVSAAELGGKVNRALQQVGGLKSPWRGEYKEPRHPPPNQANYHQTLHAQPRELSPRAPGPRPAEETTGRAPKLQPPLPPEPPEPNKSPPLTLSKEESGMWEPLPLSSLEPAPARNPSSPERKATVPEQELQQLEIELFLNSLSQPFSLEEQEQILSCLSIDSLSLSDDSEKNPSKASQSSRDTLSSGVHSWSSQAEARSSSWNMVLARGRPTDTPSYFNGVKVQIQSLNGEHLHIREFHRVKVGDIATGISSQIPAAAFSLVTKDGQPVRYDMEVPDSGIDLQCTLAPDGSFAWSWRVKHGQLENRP
Procedure, shortened: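 GST-tagged NIK/MAP3K14 (0.2 nM) auto-phosphorylation with 25 microM ATP in 50 mM Tris pH 7.5, 5 mM MgCl2, 1% DMSO; 1 h at 25° C. Phospho-IKK Ser176/180 detected by AlphaScreen; blank-subtracted % inhibition fitted sigmoidally vs log concentration for IC50.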

[3] = tested on: LP-1 cells; experiment: Biological Assay C: antiproliferative activity on LP-1 cells (CellTiter-Glo); assay type: cell-based, human; conditions: Homo sapiens, LP-1, 72 h, 72 hr treatment; averaged values
Procedure, shortened: as §1

[4] = tested on: P-IKKα levels in L363 cells; experiment: Biological Assay B: effect of compounds on P-IKKα levels in L363 cells; assay type: cell-based; conditions: Homo sapiens, L-363, averaged values, read-out: IKKα Cellular IC50
Description: Effect of Compounds on P-IKKα Levels in L363 Cells
All compounds tested were dissolved in DMSO and further dilutions were made in culture medium. Final DMSO concentration was 1% (v/v) in cell assays. The human L363 cells (ATCC) were cultured in RPMI 1640 medium supplemented with GlutaMax and 10% fetal calf serum (PAA). Cells were routinely maintained at densities of 0.2×10^6 cells per ml-1×10^6 cells per ml at 37° C. in a humidified 5% CO2 atmosphere. Cells were passaged twice a week splitting back to obtain the low density. Cells were seeded in 96 well plates (Nunc 167008) at 2×10^6 per ml media in a volume of 75 μl per well plus 25 μl 1 μg/ml recombinant human B-cell activating factor BAFF/B1YS/TNFSF13B. Seeded cells were incubated at 37° C. in a humidified 5% CO2 atmosphere for 24 hr. Drugs and/or solvents were added (20 μl) to a final volume of 120 μl. Following 2 hr treatment plates were removed from the incubator and cell lysis was achieved by the addition of 30 μl 5× lysis buffer followed by shaking on a plate shaker at 4° C. for 10 min. At the end of this incubation lysed cells were centrifuged at 800×g for 20 min at 4° C. and the lysate was assessed for P-IKKα levels by sandwich immuno-assay carried out in anti-rabbit antibody coated Mesoscale plates. Within an experiment, the results for each treatment were the mean of 2 replicate wells. For initial screening purposes, compounds were tested using an 8 point dilution curve (serial 1:3 dilutions). For each experiment, controls (containing MG132 and BAFF but no test drug) and a blank incubation (containing MG132 and BAFF and 10 μM ADS125117, a test concentration known to give full inhibition) were run in parallel. The blank incubation value was subtracted from all control and sample values. To determine the IC50 a sigmoidal curve was fitted to the plot of % inhibition of control P-IKKα levels versus Log10 compound concentration.

[5] = target: T1, Recombinant Human NF-kappaB-Inducing Kinase (NIK/MAP3K14); experiment: Biological Assay A: inhibition of recombinant human NIK/MAP3K14 activity (MBP phosphorylation, Mesoscale); assay type: biochemical; conditions: averaged over all measurements on all batches; read-out: Biochemical (MSD MBP) IC50
Description: Inhibition of Recombinant Human NF-kappaB-Inducing Kinase (NIK/MAP3K14) Activity
Assay buffer was 50 mM Tris pH 7.5 containing 1 mM EGTA (ethylene glycol tetraacetic acid), 1 mM DTT (dithiothreitol), 0.1 mM Na3VO4, 5 mM MgCl2, 0.01% Tween 20. Assays were carried out in 384 well Mesoscale high binding plates which had been coated with myelin basic protein (MBP) and blocked with bovine serum albumin to prevent non-specific protein binding. All compounds tested were dissolved in dimethyl sulfoxide (DMSO) and further dilutions were made in assay buffer. Final DMSO concentration was 1% (v/v) in assays. Incubations consisted of compound (1% DMSO in control and blank wells), 25 μM Adenosine-5′-triphosphate (ATP), and 10 nM NIK/MAP3K14 substituting enzyme with buffer in the blank wells. Incubations were carried out for 1 h at 25° C. and were followed by washing and sequential incubation with rabbit anti-phospho-MBP and anti-rabbit Ig Sulfotag antibody before reading bound Sulfotag on a Mesoscale Discovery. Signal obtained in the wells containing blank samples was subtracted from all other wells and IC50's were determined by fitting a sigmoidal curve to % inhibition of control versus Log10 compound concentration.

[6] = tested on: L-363 cells; experiment: Biological Assay C: antiproliferative activity on L-363 cells (CellTiter-Glo); assay type: cell-based, human; conditions: Homo sapiens, L-363, 72 h, 72 hr treatment; averaged values
Procedure, shortened: as §1

Row | IC50 [2] [nM] | IC50 [4] [nM] | IC50 [5] [nM] | SMILES | EC50 [1] [nM] | EC50 [3] [nM] | EC50 [6] [nM]
1 | 33 | 99 | 29 | COCCNC(=O)c1[nH]c2cnc(C#CC(C)(C)O)cc2c1-c1ccnc(N)n1 [Compound 52] | 1200 | 30000 | 3200
2 | 9 | 43 | 3.5 | COCCn1cc(-c2nc(N)ncc2C#N)c2cc(C#CC(C)(C)O)ncc21 [Compound 41] | 240 | 2200 | 290
3 | 740 | 1700 | 240 | CC(C)n1cc(-c2nc(N)ncc2CCCN)c2cc(C#CC(C)(C)O)ncc21 [Compound 118] | 330 | 3800 | 1600
4 | 38 | 660 | 52 | CC(C)(O)C#Cc1cc2c(-c3ccnc(N)n3)cn(C3CNC3)c2cn1 [Compound 113] | 1400 | 24000 | 4600
5 | 930 | 1700 | 120 | CN(C)C(=O)Cn1cc(-c2ccnc(N)n2)c2cc(C#CC(C)(C)O)ncc21 [Compound 30] | 12000 | > 10000 | 24000
6 | 100 | 330 | 45 | CC(C)(O)Cn1cc(-c2ccnc(N)n2)c2cc(C#CC(C)(O)C3CCC3)ncc21 (stereo not drawn) [Compound 37] | 3600 | > 10000 | 16000
7 | 34 | 75 | 15 | CC(C)(O)C#Cc1cc2c(-c3ccnc(N)n3)cn(CC(C)(C)O)c2cn1 [Compound 3] | 500 | 11000 | 230
8 | 12 | 16 | 4.8 | CC(C)n1cc(-c2ccnc(N)n2)c2cc(C#CC(C)(C)O)ncc21 [Compound 15] | 120 | 370 | 44
9 | 49 | 84 | 17 | CC(C)(O)C#Cc1cc2c(-c3ccnc(N)n3)cn(CC3COC3)c2cn1 [Compound 28] | 1200 | 5800 | 810
10 | 3 | 150 | 7.4 | CC(C)(O)C#Cc1cc2c(-c3ccnc(N)n3)cn(CCO)c2cn1 [Compound 12] | 1300 | 12000 | 1200
11 | 48 | 82 | 9.7 | COCCn1cc(-c2ccnc(N)n2)c2cc(C#CC(C)(C)O)ncc21 [Compound 2] | 220 | 1900 | 210
12 | 21 | 130 | 46 | CNc1nccc(-c2c[nH]c3cnc(C#CC(C)(C)O)cc23)n1 [Compound 4] | 420 | 5300 | 400
13 | 16 | 260 | 65 | CCNc1nccc(-c2c[nH]c3cnc(C#CC(C)(C)O)cc23)n1 [Compound 48] | 380 | 3900 | 650
14 | 23 | 180 | 17 | CC(C)(O)C#Cc1cc2c(-c3ccnc(N)n3)cn(CCC#N)c2cn1 [Compound 57] | 1300 | 31000 | 910
15 | 170 | 5300 | 120 | CC(C)(O)C#Cc1cc2c(-c3ccnc(N)n3)cn(CCN3CC(=O)NC3=O)c2cn1 [Compound 116] | 5600 | > 10000 | 11000
16 | 5 | 23 | 3.8 | CC(C)(O)C#Cc1cc2c(-c3nc(N)ncc3C(F)(F)F)c[nH]c2cn1 [Compound 61] | 260 | 4600 | 340
17 | 20 | 11 | 9.9 | COCCn1cc(-c2nc(N)ncc2Cl)c2cc(C#CC(C)(C)O)ncc21 [Compound 25] | 110 | 190 | 63
18 | 55 | 180 | 60 | Cc1c(-c2ccnc(N)n2)c2cc(C#CC(C)(C)O)ncc2n1CC(C)(C)O [Compound 46] | 1100 | > 10000 | 3600
19 | 2 | 37 | 1.1 | Nc1nccc(-c2c[nH]c3cnc(C#CC4(O)CC4)cc23)n1 [Compound 9] | 74 | 1200 | 120
20 | 40 | 89 | 59 | COCCn1cc(-c2ccnc(N)n2)c2cc(C#CC(C)(O)C3CC3)ncc21 (stereo not drawn) [Compound 32] | 460 | 1500 | 740
21 | 57 | 370 | 45 | CC(C)(O)Cn1cc(-c2ccnc(N)n2)c2cc(C#CC(C)(O)CC3CC3)ncc21 (stereo not drawn) [Compound 53] | 450 | > 10000 | > 10000
22 | 15 | 13 | 8.7 | CC(C)(O)C#Cc1cc2c(-c3nc(N)ncc3Cl)cn(CC(C)(C)O)c2cn1 [Compound 24] | 140 | 760 | 96
23 | 17 | 140 | 6.3 | Cc1cnc(N)nc1-c1c[nH]c2cnc(C#CC(C)(C)O)cc12 [Compound 112] | 440 | 14000 | 1300
24 | 11 | 19 | 8.4 | CC(C)(O)C#Cc1cc2c(-c3nc(N)ncc3C#N)cn(CC(C)(C)O)c2cn1 [Compound 60] | 170 | 14000 | 150
25 | 23 | 83 | 48 | CC(C)(O)C#Cc1cc2c(-c3ccnc(N)n3)cn(CCC(C)(C)O)c2cn1 [Compound 51] | 990 | > 10000 | 2400
26 | 15 | 30 | 9.4 | COCCn1cc(-c2nc(N)ncc2Cl)c2cc(C#CC(C)(O)c3nccs3)ncc21 (stereo not drawn) [Compound 20] | 1000 | 11000 | 5000
27 | 29 | 20 | 5.2 | CC(C)(O)C#Cc1cc2c(-c3nc(N)ncc3F)cn(CC(C)(C)O)c2cn1 [Compound 64] | 81 | 2000 | 51
28 | 70 | 360 | 25 | CC(C)(O)Cn1cc(-c2ccnc(N)n2)c2cc(C#CC(C)(O)c3nccs3)ncc21 (stereo not drawn) [Compound 27] | 9700 | > 10000 | > 10000
29 | 8 | 30 | 1.6 | Cn1cc(-c2ccnc(N)n2)c2cc(C#CC(C)(C)O)ncc21 [Compound 5] | 160 | 320 | 94
